Converted amounts (≈) assume the structure as drawn. Read-outs that look alike come from different tables or passages of the source.
Key:
[1] = solubility in water; format: physicochemical
Protocol: CVT-3146 has solubility in water of about 50 micrograms/mL. Therefore, CVT-3146 can be dissolved and administered in water so long as the desired weight amount of CVT-3146 can be administered in an acceptable volume. For example, a preferred dose of about 400 micrograms can be administered in 8 mL of water. If this volume is too great for administration purposes, or if the pharmaceutical composition will be stored at other than room temperature (RT), then additional ingredients can be added to the composition to increase the solubility of CVT-3146 in the composition and/or to provide the resulting pharmaceutical composition with other improved properties such as improved stability and storage properties. Pharmaceutical compositions of this invention may include up to about 1 milligram/mL of CVT-3146. It is preferred that pharmaceutical compositions including CVT-3146 include from 50 to 250 micrograms/mL, and more preferably from 50 to 150 micrograms/mL of CVT-3146.

[2] = tested on: humans; assay: Example 1: open label study, CBFv by Doppler flow wire after IV bolus in catheterization patients; format: in vivo
Protocol: The purpose of this open label study was to determine the magnitude and duration of effect of CVT-3146 (10-500 µg) on CBFv in humans.
METHODS: Patients undergoing a clinically indicated coronary catheterization with no more than a 70% stenosis in any coronary artery and no more than a 50% stenosis of the study vessel had CBFv determined by Doppler flow wire. Study subject were selected after measuring baseline and peak CBFv after an intracoronary (IC) injection of 18 µg of Ado. Twenty-three patients, who were identified as meeting the study criteria of having a peak to baseline CBFv ratio of ≥ 2.5 in response to Adenosine, received a rapid (≤ 10 sec) peripheral IV bolus of CVT-3146; Doppler signals were stable and interpretable over the time-course of the increase in CBFv in 17 patients.

[3] = tested on: healthy volunteers; assay: Example 3: maximum tolerated dose and safety after a single IV bolus, supine and standing; format: in vivo
Protocol: (§1) This Example is a study performed to evaluate (1) the maximum tolerated dose of CVT-3146 and (2) the pharmacokinetic profile of CVT-3146 in healthy volunteers, after a single IV bolus dose.
The study was performed using thirty-six healthy, non-smoking male subjects between the ages of 18 and 59 and within 15% of ideal body weight
The study was performed in phase 1, single center, double-blind, randomized, placebo-controlled, crossover, ascending dose study. Randomization was to CVT-3146 or placebo, in both supine and standing positions.
(§2) CVT-3146 was administered as an IV bolus (20 seconds) in ascending doses of […], 10, 20 and 30 µg/kg.
Subjects received either CVT-3146 or placebo on Day 1 supine, then crossover treatment on Day 2 supine. On Day 3, subjects received CVT-3146 or placebo standing, then crossover treatment on Day 4 standing.
(§3) Patient safety was monitored by ECG, laboratory assessments, and collection of vital signs and adverse events. Pharmacokinetics: • Plasma samples were drawn during supine phase (Days 1 and 2) at 0, 1, 2, 3, 4, 5, 7,10, 15, 20, 30, 45 minutes after dosing and at 1, 1.5., 2, 4, 6, 8,12 and 24 hours after dosing. Urine was collected for 24 hours for […] excretion. Pharmacodynamics: • The study evaluated the relationship of changes in heart rate to dose in both standing and supine positions and plasma concentration in the supine position.

[4] = tested on: awake dogs; assay: Example 8: vasodilator effects in different vascular beds of chronically instrumented dogs; format: in vivo
Source text: In this study the vasodilator effects of CVT-3146 were compared to those of ADO in different vascular beds in awake dogs. Dogs were chronically instrumented for measurements of the blood flow in coronary (CBF), mesenteric (MBF), hind limb (LBF), and renal (RBF) vascular beds, and hemodynamics.

[5] = tested on: anesthetized dog; assay: Example 4: blood flow velocity in various vascular beds, intravascular Doppler catheter; format: in vivo; conditions: 1.0 µg/kg intravenous bolus
Source text: The effects of CVT-3146 were quantified as the average peak blood flow velocity (APV) using intravascular Doppler transducer tipped catheter. Heart rate (HR) and systemic arterial blood pressure (BP) were also monitored. […] Increased blood flow velocity was associated with a small transient increase in HR (16 bpm) and decrease in BP (12 mmHg).

[6] = tested on: awake dogs; assay: increase of coronary blood flow velocity (CBFv) in awake dogs, potency versus adenosine (background statement); format: in vivo; conditions: relative to adenosine
[7] = Example 3: pharmacokinetic profile after a single IV bolus, three-compartment open model; format: in vivo, human; conditions: for Vc / Vd / half-life / clearance: Mean (SD); for Vd / half-life / clearance: intravenous; for Vd: read-out: Vss
Protocol: as §1, §2, §3
A three-compartment open model was fit to the data using observed Tmax (1-4 minutes) as the duration of a zero-order infusion. Reliable parameter estimates were obtained for dose of 1-30 µg/kg. Parameters are summarized in the following (Table 2): Table 2

[8] = severe in intensity, 20 µg/kg Standing, 4 subjects per group

Question: Which solubility [1] does the source give for `CNC(=O)c1cnn(-c2nc(N)c3ncn([C@@H]4O[C@H](CO)[C@@H](O)[C@H]4O)c3n2)c1` [CVT-3146, (1-{9-[(4S,2R,3R,5R)-3,4-dihydroxy-5-(hydroxymethyl)oxolan-2-yl]-6-aminopurin-2-yl}pyrazol-4-yl)-N-methylcarboxamide] here?
Answer: ~50 µg/mL (≈ 128 µM)

Question: And the “duration of CBFv augmentation (≥ 2-fold increase in CBFv)” value ([2]; 300 µg IV bolus)?
Answer: 4.0 ± 4.9 min

Question: And the “duration of CBFv augmentation (≥ 2-fold increase in CBFv)” value ([2]; 500 µg IV bolus)?
Answer: 6.9 ± 7.6 min

Question: What about the “maximal decrease in systolic blood pressure (BP)” value ([2]; 500 µg IV bolus (n=3)) of the same compound?
Answer: 8.7 ± 7.6

Question: And the “maximal increase in heart rate (HR)” value ([2]; 500 µg IV bolus (n=3))?
Answer: 18.7 ± 4.0

Question: What about the “Adverse events (AEs)” value ([2]; 3 patients receiving the 500 µg dose) of the same compound?
Answer: No AEs were noted

Question: What about the “Adverse events (AEs)” value ([2]; 10-500 µg IV bolus, nausea, flushing, headache, mild and self-limited) of the same compound?
Answer: infrequent

Question: What about the “peak to baseline ratio (CBFv)” value ([2]; IV bolus, doses of 100 µg (n=3), 300 µg (n=4) and 500 µg (n=2), mean ± SD) of the same compound?
Answer: 3.2 ± 0.6

Question: What about the serious adverse events ([3]; IV bolus 0.1 to 30 µg/kg) of the same compound?
Answer: no serious adverse events

Question: And the “Number of Subjects with AE: Dizziness” value [3, 8]?
Answer: 1

Question: What about the “Number of Subjects with AE: Palpitation” value [3, 8] of the same compound?
Answer: 0

Question: And the “Number of Subjects with AE: Syncope” value [3, 8]?
Answer: 1

Question: What about the “Number of Subjects with AE: Dizziness” value ([3]; severe in intensity, 30 µg/kg Supine, 4 subjects per group) of the same compound?
Answer: 0

Question: What about the “duration for CBF above 2-fold of the baseline” value ([4]; 2.5 µg/kg) of the same compound?
Answer: 130 ± 19 s

Question: What about the “increase in LBF (hind limb blood flow)” value ([4]; Figure 18, mean ± SE, n=6, compared with ADO) of the same compound?
Answer: smaller increase in LBF than ADO

Question: And the “decrease in BP” value [5]?
Answer: 12 mmHg

Question: What about the “small transient increase in HR” value [5] of the same compound?
Answer: 16 bpm

Question: And the “time to dissipation of effect on blood flow velocity” value [5]?
Answer: less than ten

Question: What about the “time to peak of effect on blood flow velocity” value [5] of the same compound?
Answer: less than 30 sec

Question: And the “APV increased (average peak blood flow velocity)” value (“APV increased” below) ([5]; brain arterial vasculature (BA))?
Answer: 1.4 ± 0.1 fold

Question: And the “APV increased” value ([5]; forelimb artery (FA))?
Answer: 1.2 ± 0.1 fold

Question: And the “APV increased” value ([5]; left circumflex coronary artery (LCX))?
Answer: 3.1 ± 0.2 fold

Question: What about the “APV increased” value ([5]; pulmonary artery (PA)) of the same compound?
Answer: 1.1 ± 0.01 fold

Question: What about the “more potent than adenosine (Ado) in increasing coronary blood flow velocity (CBFv)” value [6] of the same compound?
Answer: > 100 fold

Question: And the Vc ([7]; Dose 1 µg/kg, N=3)?
Answer: 9.84 (4.12) L

Question: What about the Vc ([7]; Dose 3 µg/kg, N=4) of the same compound?
Answer: 13.7 (6.06) L

Question: And the Vc ([7]; Dose 10 µg/kg, N=4)?
Answer: 17.9 (6.11) L

Question: And the Vc ([7]; Dose 20 µg/kg, N=8)?
Answer: 12.5 (5.83) L

Question: What about the Vc ([7]; Dose 30 µg/kg, N=3) of the same compound?
Answer: 15.7 (4.59) L

Question: What about the Vc ([7]; Total (doses 1-30 µg/kg), N=22) of the same compound?
Answer: 13.8 (5.67) L

Question: What about the Vd ([7]; human, plasma, 1 ug/kg, N=3) of the same compound?
Answer: 69 L

Question: And the half-life ([7]; human, plasma, 1 ug/kg, N=3, read-out: a Half-life)?
Answer: 2.14 min

Question: What about the half-life ([7]; human, plasma, 1 ug/kg, N=3, read-out: β Half-life) of the same compound?
Answer: 8.93 min

Question: What about the half-life ([7]; human, plasma, 1 ug/kg, N=3, read-out: λ Half-life) of the same compound?
Answer: 99 min

Question: And the Vd ([7]; human, plasma, 3 ug/kg, N=4)?
Answer: 90 L

Question: And the half-life ([7]; human, plasma, 3 ug/kg, N=4, read-out: a Half-life)?
Answer: 3.11 min

Question: What about the half-life ([7]; human, plasma, 3 ug/kg, N=4, read-out: β Half-life) of the same compound?
Answer: 17.2 min

Question: And the half-life ([7]; human, plasma, 3 ug/kg, N=4, read-out: λ Half-life)?
Answer: 130 min

Question: What about the Vd ([7]; human, plasma, 10 ug/kg, N=4) of the same compound?
Answer: 101 L

Question: And the half-life ([7]; human, plasma, 10 ug/kg, N=4, read-out: a Half-life)?
Answer: 4.15 min

Question: What about the half-life ([7]; human, plasma, 10 ug/kg, N=4, read-out: β Half-life) of the same compound?
Answer: 50.2 min

Question: And the half-life ([7]; human, plasma, 10 ug/kg, N=4, read-out: λ Half-life)?
Answer: 132 min

Question: And the Vd ([7]; human, plasma, 20 ug/kg, N=8)?
Answer: 75.2 L

Question: And the half-life ([7]; human, plasma, 20 ug/kg, N=8, read-out: a Half-life)?
Answer: 4.69 min

Question: What about the half-life ([7]; human, plasma, 20 ug/kg, N=8, read-out: β Half-life) of the same compound?
Answer: 32.6 min

Question: And the half-life ([7]; human, plasma, 20 ug/kg, N=8, read-out: λ Half-life)?
Answer: 117 min

Question: And the Vd ([7]; human, plasma, 30 ug/kg, N=3)?
Answer: 89.6 L

Question: And the half-life ([7]; human, plasma, 30 ug/kg, N=3, read-out: a Half-life)?
Answer: 3 min

Question: What about the half-life ([7]; human, plasma, 30 ug/kg, N=3, read-out: β Half-life) of the same compound?
Answer: 14 min

Question: And the half-life ([7]; human, plasma, 30 ug/kg, N=3, read-out: λ Half-life)?
Answer: 99.4 min

Question: What about the Vd ([7]; human, plasma, Total (doses 1-30 µg/kg), N=22) of the same compound?
Answer: 75.3 L

Question: And the half-life ([7]; human, plasma, Total (doses 1-30 µg/kg), N=22, read-out: a Half-life)?
Answer: 3.73 min

Question: And the half-life ([7]; human, plasma, Total (doses 1-30 µg/kg), N=22, read-out: β Half-life)?
Answer: 27.2 min

Question: And the half-life ([7]; human, plasma, Total (doses 1-30 µg/kg), N=22, read-out: λ Half-life)?
Answer: 86.4 min

Question: And the clearance ([7]; male, human, plasma, 1 ug/kg, N=3)?
Answer: 737 mL/min

Question: What about the clearance ([7]; male, human, plasma, 3 ug/kg, N=4) of the same compound?
Answer: 668 mL/min

Question: And the clearance ([7]; male, human, plasma, 10 ug/kg, N=4)?
Answer: 841 mL/min

Question: What about the clearance ([7]; male, human, plasma, 20 ug/kg, N=8) of the same compound?
Answer: 743 mL/min

Question: What about the clearance ([7]; male, human, plasma, 30 ug/kg, N=3) of the same compound?
Answer: 1020 mL/min

Question: And the clearance ([7]; male, human, plasma, Total (doses 1-30 µg/kg), N=22)?
Answer: 768 mL/min

Question: And the Tmax ([7]; male, human, plasma, IV bolus, supine, read-out: observed Tmax)?
Answer: 1 to 4 min

From patent publication EP1708721B1, “MYOCARDIAL PERFUSION IMAGING USING ADENOSINE RECEPTOR AGONISTS” (Gilead Sciences, Inc., priority 2004, dated 2005)
